Measurements taken from US10669268B2, “Bicyclic derivatives” (Hoffmann-La Roche Inc., priority 2012, dated 2020).

Target: ATX (human His-tagged) (Homo sapiens (Human), UniProt Q13822)
Assay: Human ATX enzyme inhibition assay (fluorescence quenching, MR121 substrate)
Type: biochemical
Details: 30 nM ATX, 1 μM MR121 substrate, 30° C., pH 8.0
Summary of the method: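 Fluorescence-quenching assay using MR121 substrate at 1 μM final, incubated 15 min at 30 °C. Buffer was 50 mM Tris-HCl pH 8.0 with 140 mM NaCl, 5 mM KCl, 1 mM CaCl2, 1 mM MgCl2 and 0.01% Triton X-100.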

SMILES | IC50 [nM]
O=C(/C=C/c1ccc(F)cc1)N1CC[C@@H]2CN(C(=O)c3ccc4[nH]nnc4c3)C[C@@H]2CC1 [Example 15.14] | 62
COc1cc(/C=C/C(=O)N2C[C@@H]3CN(C(=O)c4ccc5[nH]nnc5c4)C[C@H]3C2)cc(OC)c1 [Example 15.47] | 96
O=C(c1ccc2[nH]nnc2c1)N1C[C@@H]2CN(C(=O)c3cc4cc(Cl)ccc4[nH]3)C[C@@H]2C1 [Example 15.01] | 1620
O=C(OCC1C[C@H]2CC[C@@H]1C2)N1C[C@@H]2CN(C(=O)c3ccc4[nH]nnc4c3)C[C@@H]2C1 (stereo partly drawn) [Example 4.32, (3aS,6aR)-5-(1H-benzotriazole-5-carbonyl)-hexahydro-pyrrolo[3,4-c]pyrrole-2-carboxylic acid (1R,4S)-1-bicyclo[2.2.1]hept-2-ylmethyl ester] | 3850
CN(Cc1cnn[nH]1)C(=O)N1C[C@H]2CN(C(=O)CCc3ccc(OC(F)(F)F)cc3)C[C@H]2C1 [Example 15.60] | 1040
O=C(OCC1CCCCC1)N1C[C@@H]2CN(C(=O)c3ccc4[nH]nnc4c3)C[C@@H]2C1 [Example 4.19, (3aS,6aR)-5-(1H-benzotriazole-5-carbonyl)-hexahydro-pyrrolo[3,4-c]pyrrole-2-carboxylic acid cyclohexyl methyl ester] | 1580
CC(C)(C)c1ccccc1OCC(=O)N1C[C@@H]2CN(C(=O)c3ccc4[nH]nnc4c3)C[C@H]2C1 [Example 19.16, 1-[(3aS,6aS)-5-(1H-benzotriazole-5-carbonyl)-hexahydro-pyrrolo[3,4-c]pyrrol-2-yl]-2-(2-tert-butyl-phenoxy)-ethanone] | 31
O=C1N[C@@H]2CCN(C(=O)N3C[C@H]4CCN(C(=O)/C=C/c5ccc(OC(F)(F)F)cc5)CC[C@H]4C3)C[C@@H]2O1 [Example 8.03] | 911
O=C1NC2CCC(C(=O)N3CC4CCN(C(=O)/C=C/c5ccc(OC(F)(F)F)cc5)CCC4C3)CC2O1 (stereo in doubt) [Example 1.16, (3aSR,6SR,7aSR)-6-{(3aR,8aS)-6-[(E)-3-(4-trifluoromethoxy-phenyl)-acryloyl]-octahydro-pyrrolo[3,4-d]azepine-2-carbonyl}-hexahydro-benzooxazol-2-one] | 382
N#Cc1cc(Cl)cc(COC(=O)N2C[C@@H]3CN(C(=O)c4ccc5[nH]nnc5c4)C[C@@H]3C2)c1 [Example 4.24, (3aR,6aS)-3-chloro-5-cyanobenzyl 5-(1H-benzo[d][1,2,3]triazole-5-carbonyl)hexahydropyrrolo[3,4-c]pyrrole-2(1H)-carboxylate] | 56
Cc1ccc(OCC(=O)N2CC[C@@H]3CN(C(=O)c4ccc5[nH]nnc5c4)C[C@@H]3CC2)c(C2CCN(C)C2)c1 (stereo partly drawn) [Example 1.36, 1-[(3aS,8aR)-2-(1H-benzotriazole-5-carbonyl)-octahydro-pyrrolo[3,4-d]azepin-6-yl]-2-[4-methyl-2-(1-methyl-pyrrolidin-3-yl)-phenoxy]-ethanone] | 7460
O=C(OCc1ccc(OC(F)(F)C(F)F)cc1)N1C[C@@H]2CN(C(=O)c3ccc4[nH]nnc4c3)C[C@H]2C1 [Example 4.38, (3aS,6aS)-5-(1H-benzotriazole-5-carbonyl)-hexahydro-pyrrolo[3,4-c]pyrrole-2-carboxylic acid 4-(1,1,2,2-tetrafluoro-ethoxy)-benzyl ester] | 24
COc1ccc(CCC(=O)N2CC[C@@H]3CN(C(=O)c4ccc5[nH]nnc5c4)C[C@@H]3CC2)c(C(F)(F)F)c1 [Example 17.18, 1-((3aR,8aS)-2-(1H-benzo[d][1,2,3]triazole-5-carbonyl)octahydropyrrolo[3,4-d]azepin-6(7H)-yl)-3-(4-methoxy-2-(trifluoromethyl)phenyl)propan-1-one] | 14
Cc1ccc(/C=C/C(=O)N2CC[C@@H]3CN(C(=O)c4ccc5[nH]nnc5c4)C[C@@H]3CC2)cc1 [Example 15.07] | 21
N#Cc1ccc(COC(=O)N2C[C@@H]3CN(C(=O)c4ccc5[nH]nnc5c4)C[C@H]3C2)c(OC2CCC2)c1 [Example 4.64, (3aS,6aS)-5-(1H-benzotriazole-5-carbonyl)-hexahydro-pyrrolo[3,4-c]pyrrole-2-carboxylic acid 4-cyano-2-cyclobutoxy-benzyl ester] | 19

More lines, in order of falling IC50, values ahead:

IC50 [nM] | SMILES
14 | CC(C)c1cc(C#N)ccc1OCC(=O)N1CC[C@@H]2CN(C(=O)c3ccc4[nH]nnc4c3)C[C@@H]2CC1 [Example 1.43, 4-[2-[(3aS,8aR)-2-(1H-benzotriazole-5-carbonyl)-1,3,3a,4,5,7,8,8a-octahydropyrrolo[3,4-d]azepin-6-yl]-2-oxoethoxy]-3-propan-2-ylbenzonitrile]
14 | O=C(OCc1ccc(OC(F)(F)F)cc1)N1C[C@@H]2CN(C(=O)c3ccc4[nH]nnc4c3Cl)C[C@H]2C1 [Example 1.55, (3aS,6aS)-5-(4-chloro-1H-benzotriazole-5-carbonyl)-hexahydro-pyrrolo[3,4-c]pyrrole-2-carboxylic acid 4-trifluoromethoxy-benzyl ester]
12 | CS(=O)(=O)c1cc(Cl)cc(COC(=O)N2CC[C@@H]3CN(C(=O)c4ccc5[nH]nnc5c4)C[C@@H]3CC2)c1 [Example 4.06, (3aS,8aR)-2-(1H-benzotriazole-5-carbonyl)-octahydro-pyrrolo[3,4-d]azepine-6-carboxylic acid 3-chloro-5-methanesulfonyl-benzyl ester]
9 | Cc1ccc(C(C)C)c(OCC(=O)N2CC[C@@H]3CN(C(=O)c4ccc5[nH]nnc5c4)C[C@@H]3CC2)c1 [Example 15.97]
9 | O=C(OCc1cc(Cl)cc(Cl)c1)N1CC[C@@H]2CN(C(=O)c3ccc4[nH]nnc4c3)C[C@H]2C1 (single isomer, unassigned) [Example 11B, trans-3,5-dichlorobenzyl 2-(1H-benzo[d][1,2,3]triazole-5-carbonyl)-hexahydro-1H-pyrrolo[3,4-c]pyridine-5(6H)-carboxylate]
9 | O=C(OCc1cc(Cl)cc(Cl)c1)N1CC[C@@H]2CN(C(=O)c3ccc4[nH]nnc4c3)C[C@H]2C1 (relative stereo) [Example 1.09, trans-3,5-dichlorobenzyl 2-(1H-benzo[d][1,2,3]triazole-5-carbonyl)hexahydro-1H-pyrrolo[3,4-c]pyridine-5(6H)-carboxylate]
9 | O=C(OCc1ccc(C(F)(F)F)cc1)N1C[C@@H]2CN(C(=O)[C@@H]3CCc4[nH]nnc4C3)C[C@H]2C1 [Example 4.59, (3aS,6aS)-5-((R)-4,5,6,7-tetrahydro-1H-benzotriazole-5-carbonyl)-hexahydro-pyrrolo[3,4-c]pyrrole-2-carboxylic acid 4-trifluoromethyl-benzyl ester]
8 | O=C(/C=C/c1ccc(OC(F)(F)F)cc1)N1CC[C@@H]2CN(C(=O)C3CCc4[nH]nnc4C3)C[C@@H]2CC1 (stereo partly drawn) [Example 1, (E)-1-[(3aS,8aR)-2-(4,5,6,7-Tetrahydro-1H-benzotriazole-5-carbonyl)-octahydro-pyrrolo[3,4-d]azepin-6-yl]-3-(4-trifluoromethoxy-phenyl)-prop-2-en-1-one]
8 | O=C(/C=C/c1ccc(SC(F)(F)F)cc1)N1CC[C@@H]2CN(C(=O)c3ccc4[nH]nnc4c3)C[C@@H]2CC1 [Example 15.69, (E)-1-((3aR,8aS)-2-(1H-benzo[d][1,2,3]triazole-5-carbonyl)octahydropyrrolo[3,4-d]azepin-6(7H)-yl)-3-(4-(trifluoromethylthio)phenyl)prop-2-en-1-one]
5 | O=C(OCc1cc(Cl)cc(Cl)c1)N1C[C@@H]2CN(C(=O)c3ccc4[nH]c(=O)oc4c3)C[C@@H]2C1 [Example 2.01, (3aR,6aS)-3,5-dichlorobenzyl 5-(2-oxo-2,3-dihydrobenzo[d]oxazole-6-carbonyl)hexahydropyrrolo[3,4-c]pyrrole-2(1H)-carboxylate]
5 | Cc1cc(OCC(=O)N2C[C@@H]3CN(C(=O)c4ccc5[nH]nnc5c4)C[C@H]3C2)c(C(C)C)cc1Cl [Example 15.64]
5 | O=C(/C=C/c1ccc(OC(F)(F)F)cc1F)N1C[C@@H]2CN(C(=O)c3ccc4[nH]nnc4c3)C[C@H]2C1 [Example 15.40, (E)-1-((3aR,6aR)-5-(1H-benzo[d][1,2,3]triazole-5-carbonyl)hexahydro-pyrrolo[3,4-c]pyrrol-2(1H)-yl)-3-(2-fluoro-4-(trifluoromethoxy)phenyl)-prop-2-en-1-one]
4 | O=C(CCc1cc(Cl)cc(C(F)(F)F)c1)N1CC[C@@H]2CN(C(=O)c3ccc4[nH]nnc4c3)C[C@@H]2CC1 [Example 17.17, 1-((3aR,8aS)-2-(1H-benzo[d][1,2,3]triazole-5-carbonyl)octahydropyrrolo[3,4-d]azepin-6(7H)-yl)-3-(3-chloro-5-(trifluoromethyl)phenyl)propan-1-one]
3 | O=C(COc1ccc(OC(F)(F)F)cc1)N1C[C@@H]2CN(C(=O)[C@@H]3CCc4[nH]nnc4C3)C[C@H]2C1 [Example 19.34, 1-[(3aS,6aS)-5-[(5R)-4,5,6,7-tetrahydro-1H-benzotriazole-5-carbonyl]-1,3,3a,4,6,6a-hexahydropyrrolo[3,4-c]pyrrol-2-yl]-2-[4-(trifluoromethoxy)phenoxy]ethanone]
2 | O=C(c1cc2ccccc2c(OCC(F)(F)F)n1)N1C[C@@H]2CN(C(=O)[C@@H]3CCc4[nH]nnc4C3)C[C@H]2C1 [Example 19.28, [(3aS,6aS)-5-[(5R)-4,5,6,7-tetrahydro-1H-benzotriazole-5-carbonyl]-1,3,3a,4,6,6a-hexahydropyrrolo[3,4-c]pyrrol-2-yl]-[1-(2,2,2-trifluoroethoxy)isoquinolin-3-yl]methanone]
